Data: patent publication US20250090865A1, “LESIONAL DOSIMETRY FOR TARGETED RADIOTHERAPY OF CANCER” (Memorial Sloan-Kettering Cancer Center, priority 2021, published 2025)
Like-named read-outs stand apart in the source and are kept apart here.

Legend:
[1] = tested on: individual lesions of metastatic thyroid cancer; experiment: ^124I PET/CT imaging of lesion radioiodine uptake; type: in vivo, human; conditions: 48 h after oral ^124I
From the text: Population. The present study includes consecutive 21 patients studied under two different RB-approved protocols who underwent imaging. Patients who were considered candidates for RAI treatment of DTC were enrolled. All patients had histologically confirmed, metastatic thyroid cancer.
Dosimetry and estimation of average lesion uptake. […] (FIG. 9).

[2] = tested on: individual lesions of metastatic thyroid cancer
Protocol: Dosimetry and estimation of average lesion uptake. A workflow was established for four-time point measurement of individual lesion radioiodine kinetics to generate area under the curve (AUC) estimation for accurate determination of the radiation dose in Gray (Gy) to individual lesions in patients undergoing RAI therapy for DTC. Positron emission tomography (PET/CT) imaging was performed after oral administration of 222 MBq (6.0 mCi) of ^124I—NaI (3D Imaging, Waco, TX). Whole-body imaging was performed at 4, 24, 48, and 96 hours after oral administration of the radioactivity (FIG. 4). Regions of interest were obtained over all visible lesions >0.5 cm within the body and multiple parameters were obtained for later analysis. The following parameters were captured in a database for each patient and each lesion: size in three dimensions (cm); standardized uptake value (SUV), maximum and average; lean body weight; and activity concentration in microcurie/gram. (FIG. 9). For these patients, the best clearance fitting curve was estimated using a dual exponential equation model comprising lesion uptake and clearance. Prior to integration, clearance fitting was adjusted to replace the decay constant of ^124I with ^131I, the therapy isotope of interest, and then integrated to obtain the AUC. This AUC was multiplied by the equilibrium dose constant for the non-penetrating P-emissions of ^131I, yielding the lesion-absorbed dose in Gy.
Range of ^131I activity to treat a chosen efficacy rate for RAI in mDTC patients. A multi-disciplinary team of nuclear medicine specialists, endocrinologists, medical oncologists, and medical physicists met weekly to make treatment decisions based on the PET data generated, including data from the methods disclosed herein.
(§1) The target radiation dose of 2000 cGy was chosen because doses above this level are often used as the threshold for patients to receive further radioiodine treatment. Based on the PI now available for the AUC, a simple calculation of the relationship between ^124I and ^131I uptake can yield a PI for the dose [dlow−dhigh]. […] Thus, the higher boundary (dhigh) corresponds to the activity to treat 97.5% of the lesions with the given uptake. By varying this boundary, it is possible to select an activity that will target 95%, 90%, or fewer of the lesions.
The full parameter data set consists of: anatomical descriptor, mean size (cm), lesion dose per projected unit millicurie of administered ^131I activity with and without partial volume correction (5), half-life based on a linear slop between day 3 and 5 as well as based on exponential curve fitting, area under the curve based on an integrated curve fit, estimated activity per gram at 48 and 72 hours post-administration, SUV and SUL (based on lean body mass) at 24, 48, and 72 hours post-administration, the administered activity to deliver 2,000 cGy, the radiation dose estimate resulting from the actual therapeutic amount administered to the patient, and the maximum projected dose that could have been achieved had the maximum tolerated activity been administered. This dataset was used as the input to derive a statistical model to predict the radiation dose to lesions.

[3] = tested on: metastatic thyroid cancer; conditions: patients with any lesion with predicted dose >2000 cGy
From the text: Prediction of activity to deliver 2000 cGy. An operational definition in the methods disclosed herein is that a patient with any lesion with a predicted dose of >2000 cGy would likely respond to treatment. […] A total of 208 lesions are included in the analysis. The prediction is limited for lesions with an SUV >1, as no treatment is planned for lesions with no uptake. Lesions that received no treatment (n=39) were included in the analysis, as prediction is still feasible. […] In (SUV_48_)___.

[4] = tested on: individual lesions of metastatic thyroid cancer; remark: listed apart in the source
From the text: Predicting AUC based on a single time point. One goal of this study was to use a single time point to predict the overall area under the radioiodine lesion activity retention curve to estimate the radiation-absorbed dose to lesions without the need for costly additional PET/CT imaging to fully characterize the kinetic behavior. […] For this estimation, the unit is the lesion, and a generalized estimating equation approach is used to estimate the parameters (intercept, slope, and robust variance matrix) accounting for the correlation between lesions in the same patient. Log-transformed values of the uptake and doses are used to ensure the data are normally distributed.
Second, using the estimations for R and the covariance matrix, a prediction interval (PI) is calculated. A PI differs from a confidence interval, as it aims to predict with 95% confidence where future measurements will fall. In our case, if we observed the same value of SUV at 48 h for 100 new lesions, the PI is the range in which 95 of those lesions' AUCs will be found. As difficulties arose when analytically constructing the PI, simulated prediction was used to calculate PIs following the steps detailed in Gelman and Hill, Data Analysis Using Regression and Multilevel/Hierarchical Models (1st Edition, 2007) and summarized in Appendix A.
To validate the accuracy of the prediction, a leave-one-patient-out cross-validation approach was used. For each patient i (i=1, . . . , n), the linear regression parameters are re-estimated using n−1 patients (excluding i), and PIs are calculated for each lesion in patient i based on their measured predictor values.
For those lesions, the actual observed AUC is then compared to the PI. When using 95% PI, it is expected that 95% of the observed values will fall into the corresponding PIs; i.e., 5% will be outside the prediction. In addition, for each left-out patient, an error of prediction is calculated corresponding to the squared difference between the predicted and true AUC values for each lesion. This squared error is average over all the lesions of all the patients to obtain a cross-validated error.
as §1

[5] = median of 21 patients
Protocol: Maximum Tolerated Activity (MTA).
To perform these studies, serial blood samples and total body measurements were conducted to determine β- and photon radiation dose contributions to blood (a proxy for the dose-limiting bone marrow) from a pre-therapy tracer administration of either ^124I or ^131I.

SMILES: [124I-].[Na+] [^124I, ^124I—NaI]
- SUV(48 h) ([1]; patient 1, 13 lesions): 8.03
- SUV(48 h) ([1]; patient 2, 18 lesions): 80.1
- SUV(48 h) ([1]; patient 3, 14 lesions): 3.25
- SUV(48 h) ([1]; patient 4, 12 lesions): 7.4
- SUV(48 h) ([1]; patient 5, 10 lesions): 1.85
- SUV(48 h) ([1]; patient 6, 16 lesions): 27.8
- SUV(48 h) ([1]; patient 7, 23 lesions): 35
- SUV(48 h) ([1]; patient 8, 6 lesions): 1.73
- SUV(48 h) ([1]; patient 9, 8 lesions): 4.35
- SUV(48 h) ([1]; patient 10, 4 lesions): 26.2
- SUV(48 h) ([1]; patient 11, 11 lesions): 11.30
- SUV(48 h) ([1]; patient 12, 3 lesions): 0.7
- SUV(48 h) ([1]; patient 13, 13 lesions): 1.30
- SUV(48 h) ([1]; patient 14, 5 lesions): 0.90
- SUV(48 h) ([1]; patient 15, 17 lesions): 385.3
- SUV(48 h) ([1]; patient 16, 6 lesions): 8.30
- SUV(48 h) ([1]; patient 17, 6 lesions): 0.80
- SUV(48 h) ([1]; patient 18, 12 lesions): 25.1
- SUV(48 h) ([1]; patient 19, 17 lesions): 204.6
- SUV(48 h) ([1]; patient 20, 13 lesions): 2.30
- SUV(48 h) ([1]; patient 21, 10 lesions): 10.8

SMILES: [131I-].[Na+] [^131I, Iodine-131]
- Teff ([2]; patient 1, 13 lesions): 8.02 days
- Teff ([2]; patient 2, 18 lesions): 4.28 days
- Teff ([2]; patient 3, 14 lesions): 0.45 days
- Teff ([2]; patient 4, 12 lesions): 3.16 days
- Teff ([2]; patient 5, 10 lesions): 1.48 days
- Teff ([2]; patient 6, 16 lesions): 1.59 days
- Teff ([2]; patient 7, 23 lesions): 2.48 days
- Teff ([2]; patient 8, 6 lesions): 4.41 days
- Teff ([2]; patient 9, 8 lesions): 3.03 days
- Teff ([2]; patient 10, 4 lesions): 1.26 days
- Teff ([2]; patient 11, 11 lesions): 2.98 days
- Teff ([2]; patient 12, 3 lesions): 3.8 days
- Teff ([2]; patient 13, 13 lesions): 1.55 days
- Teff ([2]; patient 14, 5 lesions): 1.74 days
- Teff ([2]; patient 15, 17 lesions): 3.79 days
- Teff ([2]; patient 16, 6 lesions): 4.77 days
- Teff ([2]; patient 17, 6 lesions): 8.04 days
- Teff ([2]; patient 18, 12 lesions): 1.69 days
- Teff ([2]; patient 19, 17 lesions): 1.55 days
- Teff ([2]; patient 20, 13 lesions): 1.74 days
- Teff ([2]; patient 21, 10 lesions): 4.63 days
- probability of complete reduction [3]: 100%
- probability of durable partial RECIST response [3]: 75%
- AUC 95% PI ([4]; SUV at 48 h 2): 1.5-9.1 uCi · hr/g per mCi
- AUC Mean Estimate ([4]; SUV at 48 h 2): 4.0 uCi · hr/g per mCi
- AUC 95% PI ([4]; SUV at 48 h 4): 3.3-20.3 uCi · hr/g per mCi
- AUC Mean Estimate ([4]; SUV at 48 h 4): 8.1 uCi · hr/g per mCi
- AUC 95% PI ([4]; SUV at 48 h 6): 4.8-29.2 uCi · hr/g per mCi
- AUC Mean Estimate ([4]; SUV at 48 h 6): 12.1 uCi · hr/g per mCi
- AUC 95% PI ([4]; SUV at 48 h 8): 6.4-38.8 uCi · hr/g per mCi
- AUC Mean Estimate ([4]; SUV at 48 h 8): 16.1 uCi · hr/g per mCi
- AUC 95% PI ([4]; SUV at 48 h 10): 8.6-48.4 uCi · hr/g per mCi
- AUC Mean Estimate ([4]; SUV at 48 h 10): 20.2 uCi · hr/g per mCi
- AUC 95% PI ([4]; SUV at 48 h 15): 11.9-71.0 uCi · hr/g per mCi
- AUC Mean Estimate ([4]; SUV at 48 h 15): 30.3 uCi · hr/g per mCi
- AUC 95% PI ([4]; SUV at 48 h 20): 16.1-97.1 uCi · hr/g per mCi
- AUC Mean Estimate ([4]; SUV at 48 h 20): 40.4 uCi · hr/g per mCi
- AUC 95% PI ([4]; SUV at 48 h 30): 24.3-147.4 uCi · hr/g per mCi
- AUC Mean Estimate ([4]; SUV at 48 h 30): 60.6 uCi · hr/g per mCi
- AUC 95% PI ([4]; SUV at 48 h 50): 40.8-252.9 uCi · hr/g per mCi
- AUC Mean Estimate ([4]; SUV at 48 h 50): 101.2 uCi · hr/g per mCi
- AUC 95% PI ([4]; SUV at 48 h 100): 82.3-479.6 uCi · hr/g per mCi
- AUC Mean Estimate ([4]; SUV at 48 h 100): 202.6 uCi · hr/g per mCi
- AUC 95% PI ([4]; SUV at 48 h 200): 164.2-951.2 uCi · hr/g per mCi
- AUC Mean Estimate ([4]; SUV at 48 h 200): 405.8 uCi · hr/g per mCi
- AUC 95% PI ([4]; SUV at 48 h 300): 257.8-1476.2 uCi · hr/g per mCi
- AUC Mean Estimate ([4]; SUV at 48 h 300): 609.2 uCi · hr/g per mCi
- Maximum Tolerated Activity (mCi) [5]: 426 mCi
